{
  "source": "patent US20100081690A1",
  "about": "“OXAZOLE DERIVATIVES AS POSITIVE ALLOSTERIC MODULATORS OF METABOTROPIC GLUTAMATE RECEPTORS” (ADDEX PHARMA SA, priority 2006, published 2010)",
  "key": {"rat mGluR5": {"target": "T1, rat mGluR5 (Rattus norvegicus, UniProt P31424)", "T1 construct": "expressed in transfected cells", "T1 sequence (P31424 21-1171 isoform P31424-2 limits assumed)": "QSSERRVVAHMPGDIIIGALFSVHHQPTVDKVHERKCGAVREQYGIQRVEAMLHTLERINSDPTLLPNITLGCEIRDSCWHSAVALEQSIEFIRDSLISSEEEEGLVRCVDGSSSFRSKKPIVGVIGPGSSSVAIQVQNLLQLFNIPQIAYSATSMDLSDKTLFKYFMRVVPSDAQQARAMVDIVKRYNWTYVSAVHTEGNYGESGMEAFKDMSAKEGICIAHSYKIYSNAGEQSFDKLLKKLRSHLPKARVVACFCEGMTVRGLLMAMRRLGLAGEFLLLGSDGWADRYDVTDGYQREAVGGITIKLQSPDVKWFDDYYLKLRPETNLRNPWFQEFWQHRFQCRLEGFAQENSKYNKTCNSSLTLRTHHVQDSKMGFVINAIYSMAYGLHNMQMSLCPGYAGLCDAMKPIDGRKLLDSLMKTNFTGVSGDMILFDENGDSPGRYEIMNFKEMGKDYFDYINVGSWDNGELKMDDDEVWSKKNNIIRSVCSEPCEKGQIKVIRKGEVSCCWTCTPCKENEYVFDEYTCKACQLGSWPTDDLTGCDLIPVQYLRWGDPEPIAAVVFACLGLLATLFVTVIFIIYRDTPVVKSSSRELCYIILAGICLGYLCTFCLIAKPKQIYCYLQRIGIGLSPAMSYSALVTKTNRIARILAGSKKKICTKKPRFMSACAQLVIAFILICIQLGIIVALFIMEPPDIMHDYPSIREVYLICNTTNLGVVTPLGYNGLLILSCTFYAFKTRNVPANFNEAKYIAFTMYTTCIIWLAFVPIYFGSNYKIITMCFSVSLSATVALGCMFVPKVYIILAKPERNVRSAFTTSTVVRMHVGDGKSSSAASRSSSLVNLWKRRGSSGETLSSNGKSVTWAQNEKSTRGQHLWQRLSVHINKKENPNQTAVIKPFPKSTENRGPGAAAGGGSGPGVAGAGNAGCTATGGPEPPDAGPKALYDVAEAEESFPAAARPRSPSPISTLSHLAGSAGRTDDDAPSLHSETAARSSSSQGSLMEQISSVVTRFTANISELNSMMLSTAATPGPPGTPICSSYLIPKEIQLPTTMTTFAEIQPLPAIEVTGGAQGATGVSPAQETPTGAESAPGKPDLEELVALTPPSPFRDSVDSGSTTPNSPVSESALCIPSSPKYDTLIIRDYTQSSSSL", "experiment": "mGluR5 assay on HEK-expressing rat mGluR5 (fluorescent cell based Ca2+ mobilization)", "settings": "HEK-293 cells stably expressing rat mGluR5, no co-addition of glutamate; mean of at least three independent experiments in duplicate; read-out: Ca2+ Flux (mean EC50)", "method": "Positive functional expression of HEK-293 cells stably expressing rat mGluR5 receptor was determined by measuring intracellular Ca^2+ changes using a Fluorometric Imaging Plate Reader (FLIPR, Molecular Devices, Sunnyvale, Calif.) in response to glutamate or selective known mGluR5 agonists and antagonists. Rat mGluR5RT-PCR products in HEK-293 cells were sequenced and found 100% identical to rat mGluR5Genbank reference sequence (NM_017012). HEK-293 cells expressing rmGluR5 were maintained in media containing DMEM, dialyzed Fetal Bovine Serum (10%), Glutamax™ (2 mM), Penicillin (100 units/ml), Streptomycin (100 μg/ml), Geneticin (100 μg/ml) and Hygromycin-B (40 μg/ml) at 37° C./5% CO2.\nAfter one day of incubation, cells were washed with assay buffer containing: 142 mM NaCl, 6 mM KCl, 1 mM […], 1 mM CaCl2, 20 mM HEPES, 1 g/L glucose, 0.125 mM sulfinpyrazone, pH 7.4. After 60 min of loading with 4 uM Fluo-4 (TefLabs, Austin, Tex.), the cells were washed three times with 50 μl of PBS Buffer and resuspended in 45 μl of assay Buffer. The plates were then transferred to a Fluorometric Imaging Plate Reader (FLIPR, Molecular Devices, Sunnyvale, Calif.) for the assessment of intracellular calcium flux. After monitoring the baseline fluorescence for 10 seconds, increasing concentrations of representative compound (from 0.01 to 60 μM) of the present invention diluted in Assay Buffer (15 μl of 4× dilutions) was added to the cell. The final DMSO concentration in the assay was 0.3%. In each experiment, fluorescence was then monitored as a function of time for 3 minutes and the data analyzed using Microsoft Excel and GraphPad Prism. Each data point was also measured two times.\nUnder these experimental conditions, this HEK-rat mGluR5 cell line is able to directly detect positive allosteric modulators without the need of co-addition of glutamate or mGluR5 agonist.\nThe concentration-response curves of representative compounds of the present invention were generated using the Prism GraphPad software (Graph Pad Inc, San Diego, USA). The curves were fitted to a four-parameter logistic equation:\n(Y=Bottom+(Top-Bottom)/(1+10̂((Log EC50−X)*Hill Slope)\nallowing determination of EC50 values.\nThe Table 1 below represents the mean EC50 obtained from at least three independent experiments of selected molecules performed in duplicate."}, "mGluR5": {"target": "T2, mGluR5 (Rattus norvegicus, UniProt P31424)", "T2 construct": "positive allosteric modulators of mGluR5 receptors in native preparations; endogenous in cells; host or cells: primary cortical astrocytes from Sprague-Dawley rat embryos (E16-19)", "T2 sequence (P31424 21-1203)": "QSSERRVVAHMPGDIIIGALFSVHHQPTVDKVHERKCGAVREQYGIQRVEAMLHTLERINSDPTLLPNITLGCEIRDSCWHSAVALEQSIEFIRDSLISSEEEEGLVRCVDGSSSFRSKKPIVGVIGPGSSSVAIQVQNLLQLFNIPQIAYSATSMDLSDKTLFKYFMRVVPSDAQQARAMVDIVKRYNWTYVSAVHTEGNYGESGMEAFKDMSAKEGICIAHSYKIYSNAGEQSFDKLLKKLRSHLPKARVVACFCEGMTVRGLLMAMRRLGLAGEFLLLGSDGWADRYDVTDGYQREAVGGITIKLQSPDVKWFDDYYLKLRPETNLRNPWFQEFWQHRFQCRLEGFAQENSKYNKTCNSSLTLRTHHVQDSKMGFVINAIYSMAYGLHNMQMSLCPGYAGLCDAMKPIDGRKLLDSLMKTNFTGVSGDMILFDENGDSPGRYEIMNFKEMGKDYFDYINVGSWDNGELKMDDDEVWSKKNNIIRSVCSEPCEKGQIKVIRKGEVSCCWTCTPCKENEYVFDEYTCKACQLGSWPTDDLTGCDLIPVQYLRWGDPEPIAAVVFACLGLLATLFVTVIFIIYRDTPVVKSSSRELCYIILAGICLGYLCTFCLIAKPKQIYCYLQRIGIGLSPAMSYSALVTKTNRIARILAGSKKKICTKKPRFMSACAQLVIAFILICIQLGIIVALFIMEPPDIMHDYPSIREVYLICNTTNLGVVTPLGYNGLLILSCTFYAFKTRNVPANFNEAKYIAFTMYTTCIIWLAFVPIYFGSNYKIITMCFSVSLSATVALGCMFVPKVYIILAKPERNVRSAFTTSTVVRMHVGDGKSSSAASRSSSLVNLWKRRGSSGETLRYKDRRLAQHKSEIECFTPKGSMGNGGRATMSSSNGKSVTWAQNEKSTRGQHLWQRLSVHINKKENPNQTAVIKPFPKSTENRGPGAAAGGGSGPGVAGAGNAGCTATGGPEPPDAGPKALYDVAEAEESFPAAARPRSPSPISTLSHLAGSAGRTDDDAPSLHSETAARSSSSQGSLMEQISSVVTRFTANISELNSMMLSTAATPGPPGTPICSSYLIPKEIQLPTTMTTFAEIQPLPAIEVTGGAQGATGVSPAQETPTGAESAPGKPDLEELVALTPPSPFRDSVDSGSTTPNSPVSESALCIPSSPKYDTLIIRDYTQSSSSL", "experiment": "mGluR5 assay on rat cultured cortical astrocytes (Ca2+ mobilization, FLIPR)", "format": "cell-based", "settings": "in the presence of 300 nM glutamate", "source_text": "Under exposure to growth factors (basic fibroblast growth factor, epidermal growth factor), rat cultured astrocytes express group I-Gq coupled mGluR transcripts, namely mGluR5, but none of the splice variants of mGluR1, and as a consequence, a functional expression of mGluR5 receptors (Miller et al. (1995) J. Neurosci. 15:6103-9): The stimulation of mGluR5 receptors with selective agonist CHPG and the full blockade of the glutamate-induced phosphoinositide (PI) hydrolysis and subsequent intracellular calcium mobilization with specific antagonist as MPEP confirm the unique expression of mGluR5 receptors in this preparation. […]\nAfter one day of incubation, cells were washed with assay buffer containing: 142 mM NaCl, 6 mM KCl, 1 mM Mg2SO4, 1 mM CaCl2, 20 mM HEPES, 1 g/L glucose, 0.125 mM sulfinpyrazone, pH 7.4. […] The plates were then transferred to a Fluorometric Imaging Plate Reader (FLIPR, Molecular Devices, Sunnyvale, Calif.) for the assessment of intracellular calcium flux. After monitoring the baseline fluorescence for 10 s, a solution containing […] of representative compound of the present invention diluted in Assay Buffer (15 μl of 4× dilutions) was added to the cell plate in the absence or in the presence of 300 nM of glutamate. […] In each experiment, fluorescence was then monitored as a function of time for 3 minutes and the data analyzed using Microsoft Excel and GraphPad Prism. […]"}},
  "data": [
    {"smiles": "O=C(c1ccc(F)cc1)N1CCC[C@H](c2nc(-c3cc(F)c[nH]3)co2)C1", "note": "[Example 1, (4-Fluoro-phenyl)-{(S)-3-[4-(4-fluoro-1H-pyrrol-2-yl)-oxazol-2-yl]-piperidin-1-yl}-methanone]", "values": [
      {"measurement": "EC50", "setting": "rat mGluR5", "value": "< 1000", "unit": "nM"},
      {"measurement": "EC50", "setting": "mGluR5", "value": "< 1000", "unit": "nM"}
    ]}
  ]
}
